Source: ChEMBL document CHEMBL1201862, “PubChem BioAssay data set” (2004)
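Tested at 5 concentrations; 48 h exposure; 96-well plates; endpoints linearly interpolated, else capped at highest concentration. GI50: concentration for 50% inhibition of growth.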 Active and inactive are the calls of the source. Cut-off read from the data, not from the text of the source: active = GI50 up to about 1.1 µM and inactive = higher.

Columns and labels:
Assay in all cases: NCI anticancer screen, dose series, 48 h
HOP-62 = test system: HOP-62
RXF 393 = test system: RXF 393
NCI-H460 = test system: NCI-H460
UO-31 = test system: UO-31
SNB-19 = test system: SNB-19
OVCAR-8 = test system: OVCAR-8
UACC-257 = test system: UACC-257
HOP-92 = test system: HOP-92
SK-MEL-5 = test system: SK-MEL-5
HL-60 = test system: HL-60
NCI-H23 = test system: NCI-H23
OVCAR-5 = test system: OVCAR-5
IGROV-1 = test system: IGROV-1
CCRF-CEM = test system: CCRF-CEM
MOLT-4 = test system: MOLT-4
SK-MEL-2 = test system: SK-MEL-2
MDA-MB-435 = test system: MDA-MB-435
MDA-MB-231 = test system: MDA-MB-231
DU-145 = test system: DU-145

Row | SMILES | GI50 (HOP-62) | GI50 (RXF 393) | GI50 (NCI-H460) | GI50 (UO-31) | GI50 (SNB-19) | GI50 (OVCAR-8) | GI50 (UACC-257) | GI50 (HOP-92) | GI50 (SK-MEL-5) | GI50 (HL-60) | GI50 (NCI-H23) | GI50 (OVCAR-5) | GI50 (IGROV-1) | GI50 (CCRF-CEM) | GI50 (MOLT-4) | GI50 (SK-MEL-2) | GI50 (MDA-MB-435) | GI50 (MDA-MB-231) | GI50 (DU-145)
1 | C[Si](C)(C)c1ccc(-c2sc(-c3ccc([Si](C)(C)C)s3)c3c2C[Si]2(C3)Cc3c(-c4ccc([Si](C)(C)C)s4)sc(-c4ccc([Si](C)(C)C)s4)c3C2)s1 | > 100 µM (inactive) | > 100 µM (inactive) | > 100 µM (inactive) | > 100 µM (inactive) | > 100 µM (inactive) | > 100 µM (inactive) | > 100 µM (inactive) | > 100 µM (inactive) | > 100 µM (inactive) | > 100 µM (inactive) | > 100 µM (inactive) | > 100 µM (inactive) | > 100 µM (inactive) | > 100 µM (inactive) | > 100 µM (inactive) |  |  |  | 
2 | CN(C)C(=S)/N=c1\ssc(=S)n1C1CCCCC1 | > 100 µM (inactive) | 33.3 µM (inactive) | 18 µM (inactive) | 61.1 µM (inactive) | 57.7 µM (inactive) | 21.4 µM (inactive) | 22.4 µM (inactive) | 35.2 µM (inactive) | 12.4 µM (inactive) | 11.2 µM (inactive) | 44 µM (inactive) | 74.1 µM (inactive) | 98.9 µM (inactive) | 0.23 µM (active) | 18.2 µM (inactive) | 52.8 µM (inactive) |  |  | 
3 | Nc1ccc(C(=O)CC2(O)C(=O)Nc3ccccc32)cc1 (stereo unspecified) |  | > 100 µM (inactive) | > 100 µM (inactive) | > 100 µM (inactive) | > 100 µM (inactive) | > 100 µM (inactive) | > 100 µM (inactive) | > 100 µM (inactive) | > 100 µM (inactive) | 38.9 µM (inactive) | > 100 µM (inactive) | > 100 µM (inactive) | > 100 µM (inactive) |  | > 100 µM (inactive) | > 100 µM (inactive) |  |  | 
4 | Cc1[nH]c2ccccc2c1C(=O)CC1(O)C(=O)Nc2ccccc21 (stereo unspecified) | > 100 µM (inactive) | > 100 µM (inactive) | > 100 µM (inactive) | > 100 µM (inactive) | > 100 µM (inactive) |  | > 100 µM (inactive) | > 100 µM (inactive) | > 100 µM (inactive) | > 100 µM (inactive) | > 100 µM (inactive) | > 100 µM (inactive) | > 100 µM (inactive) | > 100 µM (inactive) | > 100 µM (inactive) | 87.7 µM (inactive) |  |  | 
5 | Cc1ccc(S(=O)(=O)Nn2c(-c3ccccc3)c(C#N)c(-c3ccc(Cl)cc3)c(C#N)c2=O)cc1 | 30.1 µM (inactive) | 25.2 µM (inactive) | 27.9 µM (inactive) |  | 31.2 µM (inactive) |  | 32.8 µM (inactive) | 19.5 µM (inactive) | 15.2 µM (inactive) | 14.6 µM (inactive) |  | 47 µM (inactive) |  | 20.4 µM (inactive) | 18.7 µM (inactive) | 20.2 µM (inactive) | 33.3 µM (inactive) | 20 µM (inactive) | 
6 | CC1CC2(CCC1OCc1ccccc1)OCCO2 (stereo unspecified) | > 100 µM (inactive) | > 100 µM (inactive) | > 100 µM (inactive) | > 100 µM (inactive) | > 100 µM (inactive) | > 100 µM (inactive) | > 100 µM (inactive) | > 100 µM (inactive) | > 100 µM (inactive) | > 100 µM (inactive) | > 100 µM (inactive) |  | > 100 µM (inactive) | > 100 µM (inactive) | > 100 µM (inactive) | > 100 µM (inactive) |  |  | 
7 | N#C/C(=C1\N=NC(N)=C(c2ccc(Cl)cc2)C1=O)c1ccc(Cl)cc1 | > 100 µM (inactive) | > 100 µM (inactive) | > 100 µM (inactive) | > 100 µM (inactive) | > 100 µM (inactive) | > 100 µM (inactive) | > 100 µM (inactive) | > 100 µM (inactive) |  | > 100 µM (inactive) | > 100 µM (inactive) | > 100 µM (inactive) | > 100 µM (inactive) | > 100 µM (inactive) | > 100 µM (inactive) |  |  |  | 
8 | CCOC(=O)C1=C(C)CC2C(=O)OC(=O)C2C1(C)C (stereo unspecified) |  | > 100 µM (inactive) | > 100 µM (inactive) | > 100 µM (inactive) | > 100 µM (inactive) | > 100 µM (inactive) | > 100 µM (inactive) | > 100 µM (inactive) | > 100 µM (inactive) | > 100 µM (inactive) | > 100 µM (inactive) | > 100 µM (inactive) | > 100 µM (inactive) | > 100 µM (inactive) | > 100 µM (inactive) | > 100 µM (inactive) |  |  | 
9 | COC(=O)C1C(=O)NC2(C)CC1c1ccccc1O2 (stereo unspecified) | > 10 µM (inactive) | > 100 µM (inactive) | > 100 µM (inactive) | > 100 µM (inactive) | > 100 µM (inactive) | > 100 µM (inactive) | > 100 µM (inactive) | > 100 µM (inactive) | > 100 µM (inactive) | > 100 µM (inactive) | > 100 µM (inactive) | > 100 µM (inactive) | > 100 µM (inactive) | > 100 µM (inactive) | > 100 µM (inactive) | > 100 µM (inactive) |  |  | 
10 | CN1Cc2cc3cc4c(cc3nc2N(C)C1)OCCO4 | > 100 µM (inactive) | > 100 µM (inactive) | > 100 µM (inactive) |  | > 100 µM (inactive) | > 100 µM (inactive) | > 100 µM (inactive) | > 100 µM (inactive) | > 100 µM (inactive) |  |  | > 100 µM (inactive) | > 100 µM (inactive) | > 100 µM (inactive) | 64 µM (inactive) | > 100 µM (inactive) | > 100 µM (inactive) | > 100 µM (inactive) | 
11 | Cc1cccc2[s+]snc12 | > 100 µM (inactive) | 47.3 µM (inactive) | > 100 µM (inactive) | > 100 µM (inactive) | > 100 µM (inactive) | > 45 µM (inactive) | > 76.9 µM (inactive) | 23.1 µM (inactive) | > 100 µM (inactive) | 18 µM (inactive) | > 96.6 µM (inactive) | > 100 µM (inactive) | > 100 µM (inactive) | 23.9 µM (inactive) | 25.8 µM (inactive) | > 100 µM (inactive) |  |  | 
12 | CC(=O)CC(=O)OC1CC(C)CCC1C(C)C (stereo unspecified) | 33.9 µM (inactive) | 72.4 µM (inactive) | 53.3 µM (inactive) | > 100 µM (inactive) | 78.5 µM (inactive) | 72.8 µM (inactive) | 77.4 µM (inactive) | 35 µM (inactive) | 42.2 µM (inactive) | 18.8 µM (inactive) | 96.8 µM (inactive) | > 100 µM (inactive) | 76.6 µM (inactive) | 11.7 µM (inactive) | 17.3 µM (inactive) | 28.4 µM (inactive) |  |  | 
13 | O=C(CNc1nccs1)Nn1cnc2ccc(S(=O)(=O)Nc3nccs3)cc2c1=O | > 100 µM (inactive) |  | > 100 µM (inactive) | > 100 µM (inactive) | > 100 µM (inactive) | > 100 µM (inactive) | > 100 µM (inactive) | > 100 µM (inactive) |  | > 100 µM (inactive) | > 100 µM (inactive) | > 100 µM (inactive) | > 100 µM (inactive) | > 100 µM (inactive) | > 100 µM (inactive) | > 100 µM (inactive) | > 100 µM (inactive) | > 100 µM (inactive) | > 100 µM (inactive)
14 | CC1CCOc2ccc(cc2)/C=N\c2ccc(cc2)-c2ccc(cc2)/N=C\c2ccc(cc2)OCC1 |  |  | > 100 µM (inactive) | > 100 µM (inactive) |  | > 100 µM (inactive) | > 100 µM (inactive) | > 100 µM (inactive) | > 100 µM (inactive) | > 100 µM (inactive) | > 100 µM (inactive) | > 100 µM (inactive) | > 100 µM (inactive) | > 100 µM (inactive) | > 100 µM (inactive) | > 100 µM (inactive) | > 100 µM (inactive) | > 100 µM (inactive) | > 100 µM (inactive)
15 | CNC(=O)NCCCCC(NC(C)=O)C(=O)NCc1ccccc1 (stereo unspecified) | > 100 µM (inactive) | > 100 µM (inactive) | > 100 µM (inactive) | > 100 µM (inactive) | > 100 µM (inactive) | > 100 µM (inactive) | > 100 µM (inactive) | > 100 µM (inactive) | > 100 µM (inactive) |  | > 100 µM (inactive) | > 100 µM (inactive) | > 100 µM (inactive) | > 100 µM (inactive) | > 100 µM (inactive) | > 100 µM (inactive) |  |  | 
16 | O=C(CC1(O)C(=O)Nc2c(Cl)cc(Cl)cc21)c1ccc(Br)cc1 (stereo unspecified) | 20.2 µM (inactive) | 16 µM (inactive) | 38.6 µM (inactive) | 12.9 µM (inactive) | 16.3 µM (inactive) | 33.8 µM (inactive) | 29.4 µM (inactive) | 15.7 µM (inactive) | 16.9 µM (inactive) | 4.3 µM (inactive) | 14 µM (inactive) | 17.2 µM (inactive) | 18.2 µM (inactive) | 14.9 µM (inactive) | 22.1 µM (inactive) | > 41.1 µM (inactive) |  |  | 
17 | COc1ccc(CN2C(=O)[C@@H]3Cc4c(OC)c(C)c(OC)c(OC)c4[C@H](/C2=C\c2cc(OC)c(OC)c(C)c2OC)N3C(=O)OC(C)C)cc1 | 65 µM (inactive) | 80.4 µM (inactive) | 15.8 µM (inactive) | 36.5 µM (inactive) | > 100 µM (inactive) | > 100 µM (inactive) | 8.28 µM (inactive) | 8.04 µM (inactive) | 29.4 µM (inactive) | 5.53 µM (inactive) | 66.4 µM (inactive) | > 100 µM (inactive) | > 100 µM (inactive) | 35.4 µM (inactive) | 6.97 µM (inactive) | 91.8 µM (inactive) |  |  | 
